In PMC8459745 (Bioorganic & medicinal chemistry letters, 2021):

Biological target: focal adhesion kinase (FAK) (Homo sapiens, UniProt Q05397)
Experiment: FAK kinase inhibition assay
Assay type: biochemical

Chain of focal adhesion kinase (FAK) (Q05397 2-1052): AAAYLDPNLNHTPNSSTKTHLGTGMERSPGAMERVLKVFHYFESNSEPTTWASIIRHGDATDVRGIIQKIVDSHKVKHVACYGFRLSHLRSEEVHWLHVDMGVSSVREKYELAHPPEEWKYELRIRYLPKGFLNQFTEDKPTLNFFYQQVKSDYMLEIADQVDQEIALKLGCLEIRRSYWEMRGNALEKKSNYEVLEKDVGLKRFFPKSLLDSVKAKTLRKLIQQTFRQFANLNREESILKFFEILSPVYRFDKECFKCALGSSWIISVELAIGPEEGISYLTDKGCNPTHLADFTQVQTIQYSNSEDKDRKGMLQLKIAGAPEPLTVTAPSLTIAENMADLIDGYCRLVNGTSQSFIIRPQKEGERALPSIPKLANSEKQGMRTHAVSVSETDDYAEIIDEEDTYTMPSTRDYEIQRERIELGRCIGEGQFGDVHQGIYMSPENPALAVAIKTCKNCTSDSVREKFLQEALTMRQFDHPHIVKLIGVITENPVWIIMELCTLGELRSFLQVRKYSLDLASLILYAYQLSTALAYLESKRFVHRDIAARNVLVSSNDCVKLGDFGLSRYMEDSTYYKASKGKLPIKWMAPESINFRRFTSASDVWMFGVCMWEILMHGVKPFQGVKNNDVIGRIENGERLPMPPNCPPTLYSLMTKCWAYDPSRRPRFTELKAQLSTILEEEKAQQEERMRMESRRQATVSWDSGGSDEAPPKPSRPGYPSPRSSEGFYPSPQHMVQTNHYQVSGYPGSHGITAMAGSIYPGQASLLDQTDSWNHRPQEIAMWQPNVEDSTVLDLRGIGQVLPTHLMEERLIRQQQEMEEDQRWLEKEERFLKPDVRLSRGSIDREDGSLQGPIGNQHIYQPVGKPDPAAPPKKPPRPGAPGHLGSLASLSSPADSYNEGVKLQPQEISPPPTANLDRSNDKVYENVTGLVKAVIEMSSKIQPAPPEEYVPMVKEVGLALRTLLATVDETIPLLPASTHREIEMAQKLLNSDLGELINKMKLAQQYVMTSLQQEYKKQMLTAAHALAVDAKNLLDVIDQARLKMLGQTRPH

IC50: 22.1 nM
Structure (SMILES): CONC(=O)c1ccccc1Nc1cc(Nc2cc(C)nn2C(C)C)ncc1Cl [GSK2256098]
